Laboratory results from US10150728B2, “Alkylene derivatives” (Shionogi & Co., Ltd., priority 2013, dated 2018).

Biological target: recombinant human ACC2 (Homo sapiens (Human), UniProt O00763)
Assay: Measurement of inhibitory activity on human ACC2 (MALDI-TOF MS, acetyl CoA to malonyl CoA conversion)
Type: biochemical
Conditions: Tables 155-159
In short: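 His-tagged human ACC2 (residues 27–2458) from baculovirus-infected Sf-9 cells was preincubated 1 h in pH 7.4 HEPES-KOH buffer with MgCl2, 6-10 mM potassium citrate, glutathione and BSA. Substrate solution held 1 mM ATP, 0.8 mM acetyl CoA and 25-50 mM bicarbonate. After 1–3 h at room temperature, malonyl CoA/(malonyl+acetyl CoA) was read by negative-mode MALDI-TOF MS; citrate, bicarbonate and time varied by enzyme lot.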

Chain of recombinant human ACC2 (O00763 27-2458): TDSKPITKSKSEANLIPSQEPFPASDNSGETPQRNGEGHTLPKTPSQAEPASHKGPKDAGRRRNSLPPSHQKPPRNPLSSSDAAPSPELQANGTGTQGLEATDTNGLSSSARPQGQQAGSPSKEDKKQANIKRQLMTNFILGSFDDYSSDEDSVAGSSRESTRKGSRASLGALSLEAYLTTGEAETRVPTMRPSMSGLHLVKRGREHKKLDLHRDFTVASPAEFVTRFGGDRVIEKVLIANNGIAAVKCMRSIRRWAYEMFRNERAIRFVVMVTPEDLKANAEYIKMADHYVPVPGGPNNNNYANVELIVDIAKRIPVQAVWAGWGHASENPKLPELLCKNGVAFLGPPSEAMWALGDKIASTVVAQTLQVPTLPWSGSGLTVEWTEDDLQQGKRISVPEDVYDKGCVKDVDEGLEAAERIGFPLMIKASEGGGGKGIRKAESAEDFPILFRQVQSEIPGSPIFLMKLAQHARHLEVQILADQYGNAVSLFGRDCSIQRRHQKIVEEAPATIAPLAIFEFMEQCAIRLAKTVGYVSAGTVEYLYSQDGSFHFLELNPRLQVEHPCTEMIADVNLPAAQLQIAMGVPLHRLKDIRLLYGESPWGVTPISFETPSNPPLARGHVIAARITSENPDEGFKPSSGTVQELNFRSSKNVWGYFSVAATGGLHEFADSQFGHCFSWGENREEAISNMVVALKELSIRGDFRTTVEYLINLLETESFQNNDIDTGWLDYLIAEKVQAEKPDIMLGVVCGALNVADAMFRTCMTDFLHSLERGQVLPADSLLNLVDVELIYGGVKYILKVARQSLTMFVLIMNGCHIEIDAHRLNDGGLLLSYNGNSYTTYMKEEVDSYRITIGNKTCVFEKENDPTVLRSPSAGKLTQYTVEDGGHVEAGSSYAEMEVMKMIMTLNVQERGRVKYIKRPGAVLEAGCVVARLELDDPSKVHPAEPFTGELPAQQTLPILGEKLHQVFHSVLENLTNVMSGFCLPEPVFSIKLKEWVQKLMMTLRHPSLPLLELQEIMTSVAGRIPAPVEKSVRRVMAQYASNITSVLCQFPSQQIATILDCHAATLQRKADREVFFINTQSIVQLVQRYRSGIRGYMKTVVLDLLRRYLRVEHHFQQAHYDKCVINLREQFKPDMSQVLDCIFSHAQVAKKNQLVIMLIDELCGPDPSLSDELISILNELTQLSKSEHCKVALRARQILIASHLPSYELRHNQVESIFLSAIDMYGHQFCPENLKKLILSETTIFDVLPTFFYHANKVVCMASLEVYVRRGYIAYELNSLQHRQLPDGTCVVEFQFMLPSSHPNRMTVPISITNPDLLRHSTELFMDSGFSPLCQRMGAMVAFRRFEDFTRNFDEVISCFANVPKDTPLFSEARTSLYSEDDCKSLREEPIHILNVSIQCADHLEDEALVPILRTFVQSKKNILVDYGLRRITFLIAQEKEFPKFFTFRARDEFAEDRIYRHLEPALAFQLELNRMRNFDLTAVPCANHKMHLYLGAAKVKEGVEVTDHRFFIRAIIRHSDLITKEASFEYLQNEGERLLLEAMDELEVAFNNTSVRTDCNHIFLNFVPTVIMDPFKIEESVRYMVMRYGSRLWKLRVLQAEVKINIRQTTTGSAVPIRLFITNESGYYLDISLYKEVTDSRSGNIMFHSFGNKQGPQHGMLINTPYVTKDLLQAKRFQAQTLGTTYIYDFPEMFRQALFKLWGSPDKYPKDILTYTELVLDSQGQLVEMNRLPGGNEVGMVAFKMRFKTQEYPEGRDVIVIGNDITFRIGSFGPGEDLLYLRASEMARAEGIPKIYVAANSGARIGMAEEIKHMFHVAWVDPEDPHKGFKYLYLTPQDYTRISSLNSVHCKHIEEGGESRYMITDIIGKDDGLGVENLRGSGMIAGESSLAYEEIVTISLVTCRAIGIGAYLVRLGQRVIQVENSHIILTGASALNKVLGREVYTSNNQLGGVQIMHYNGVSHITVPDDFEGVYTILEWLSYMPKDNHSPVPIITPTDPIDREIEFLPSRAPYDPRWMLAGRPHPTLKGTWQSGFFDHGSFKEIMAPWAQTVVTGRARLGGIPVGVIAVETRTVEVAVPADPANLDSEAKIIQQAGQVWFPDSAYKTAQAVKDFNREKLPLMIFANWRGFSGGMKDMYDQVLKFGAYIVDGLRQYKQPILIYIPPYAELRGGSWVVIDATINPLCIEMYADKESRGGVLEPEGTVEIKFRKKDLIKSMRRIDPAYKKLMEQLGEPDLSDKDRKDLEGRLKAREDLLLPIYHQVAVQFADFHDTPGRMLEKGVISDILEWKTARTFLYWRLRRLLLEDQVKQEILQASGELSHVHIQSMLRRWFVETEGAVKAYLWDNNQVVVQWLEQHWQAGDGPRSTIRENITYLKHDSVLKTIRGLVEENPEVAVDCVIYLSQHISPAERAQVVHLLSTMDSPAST

Row | SMILES | IC50
1 | CC(=O)N[C@@H](C)CO[C@H]1C[C@H](COc2nc3sc(OCC(F)(F)F)nc3cc2F)C1 [Compound I-181] | 14 nM
2 | CC(=O)N[C@@H](C)CO[C@H]1C[C@H](COc2nc3sc(OC(C)C)nc3cc2F)C1 [Compound I-182] | 12 nM
3 | CC(=O)N[C@@H](C)CO[C@H]1CC[C@H](Oc2cc3sc(OCC4CC4)nc3cn2)CC1 [Compound I-183] | 14 nM
4 | CC(=O)N[C@@H](C)CO[C@H]1CC[C@H](Oc2cc3sc(OCC(F)(F)F)nc3cn2)CC1 [Compound I-184] | 54 nM
5 | CC(=O)N[C@@H](C)CO[C@H]1CC[C@H](Oc2cc3sc(OCC(F)F)nc3cn2)CC1 [Compound I-185] | 44 nM
6 | CCOc1nc2cc(F)c(O[C@H]3CC[C@H](OC[C@H](C)NC(C)=O)CC3)nc2s1 [Compound I-186] | 5 nM
7 | CC(=O)N[C@@H](C)CO[C@H]1CC[C@H](Oc2ccc3nc(N4CC(C)(O)C4)sc3c2F)CC1 [Compound I-187] | 234 nM
8 | CC(=O)N[C@@H](C)CO[C@H]1CC[C@H](Oc2ccc3nc(N4CCC(F)(F)CC4)sc3c2F)CC1 [Compound I-188] | 41 nM
9 | CC(=O)N[C@@H](C)CO[C@H]1CC[C@H](Oc2ccc3nc(N4CCC(F)(F)C4)sc3c2F)CC1 [Compound I-189] | 27 nM
10 | CCN(C)c1nc2ccc(O[C@H]3CC[C@H](OC[C@H](C)NC(C)=O)CC3)c(F)c2s1 [Compound I-190] | 73 nM
11 | CC(=O)N[C@@H](C)CO[C@H]1C[C@H](COc2ccc3nc(OC[C@H](C)F)sc3n2)C1 [Compound I-191] | 12 nM
12 | CC(=O)N[C@@H](C)CO[C@H]1C[C@H](COc2ccc3nc(OCC4(C#N)CC4)sc3n2)C1 [Compound I-192] | 61 nM
13 | CC(=O)N[C@@H](C)CO[C@H]1C[C@H](COc2ccc3nc(OCC(C)(F)F)sc3n2)C1 [Compound I-193] | 12 nM
14 | CC(=O)N[C@@H](C)CO[C@H]1C[C@H](COc2ccc3nc(OC(C)CF)sc3n2)C1 (some centres unmarked) [Compound I-194] | 12 nM
15 | CC(=O)N[C@@H](C)CO[C@H]1C[C@H](COc2ccc3nc(OCC4(F)COC4)sc3n2)C1 [Compound I-195] | 28 nM
16 | CC(=O)N[C@@H](C)CO[C@H]1C[C@H](COc2ccc3nc(OCC(C)C)sc3n2)C1 [Compound I-196] | 12 nM
17 | CC(=O)N[C@@H](C)CO[C@H]1C[C@H](COc2ccc3nc(OCC4CC4(F)F)sc3n2)C1 (some centres unmarked) [Compound I-197] | 15 nM
18 | CC(=O)N[C@@H](C)CO[C@H]1C[C@H](COc2ccc3nc(OCC4(C)CC4)sc3n2)C1 [Compound I-198] | 5 nM
19 | CC(=O)N[C@@H](C)CO[C@H]1C[C@H](COc2ccc3nc(OCC4CCO4)sc3n2)C1 (some centres unmarked) [Compound I-199] | 121 nM
20 | CC(=O)N[C@@H](C)CO[C@H]1C[C@H](COc2ccc3nc(OC4(C)CC4)sc3n2)C1 [Compound I-200] | 30 nM
21 | CC(=O)N[C@@H](C)CO[C@H]1CC[C@](F)(COc2ccc3nc(OCC4CC4)sc3n2)CC1 [Compound I-201] | 17 nM
22 | CC(=O)N[C@@H](C)CO[C@H]1C[C@](F)(COc2ccc3nc(OC(C)CF)sc3n2)C1 (some centres unmarked) [Compound I-202] | 66 nM
23 | CC(=O)N[C@@H](C)CO[C@H]1C[C@](F)(COc2ccc3nc(OCC(C)(F)F)sc3n2)C1 [Compound I-203] | 48 nM
24 | CC(=O)N[C@@H](C)CO[C@H]1C[C@](F)(COc2ccc3nc(Oc4ccc(F)cc4)sc3n2)C1 [Compound I-204] | 113 nM
25 | C[C@@H](CO[C@H]1C[C@H](COc2ccc3nc(OCC(F)F)sc3n2)C1)NC(N)=O [Compound I-205] | 25 nM
26 | C[C@@H](CO[C@H]1C[C@H](COc2ccc3nc(OCC(F)F)sc3n2)C1)NC(=O)O [Compound I-206] | 79 nM
27 | C[C@@H](CO[C@H]1C[C@H](COc2ccc3nc(OCC(F)F)sc3n2)C1)NC(=O)C(F)(F)F [Compound I-207] | 11 nM
28 | CC(=O)N[C@@H](C)CO[C@H]1CC[C@H](Oc2ccc3nc(N4CC(F)(F)C4)sc3n2)CC1 [Compound I-208] | 8 nM
29 | CC(=O)N[C@@H](C)CO[C@H]1CC[C@H](Oc2ccc3nc(OC(C)C)sc3n2)CC1 [Compound I-209] | 12 nM
